Tests used:
Assay in all cases: relative viability (nuclei count vs DMSO), 5 days (fraction); higher = more cells survive
NCI-H1623 = tested on: NCI-H1623
In short: (§1)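 Values are medians from duplicate plates. Each reflects relative viability, defined as the nuclei count of treated wells over that of vehicle wells. Lung cancer cell lines in 1536-well plates were pin-tool dosed one day after seeding with one drug alone or with a fixed anchor-drug dose plus five library-drug doses (not always all listed) in √10 steps, then fixed, stained and imaged at 4× after 5 days.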

A549 = tested on: A549
In short: as §1

NCI-H1355 = tested on: NCI-H1355
In short: as §1

NCI-H1648 = tested on: NCI-H1648
In short: as §1

NCI-H1703 = tested on: NCI-H1703
In short: as §1

IA-LM = tested on: IA-LM
In short: as §1

NCI-H1299 = tested on: NCI-H1299
In short: as §1

Calu-6 = tested on: Calu-6
In short: as §1

EBC-1 = tested on: EBC-1
In short: as §1

COc1cc(N2CCC(C(N)=O)CC2)ccc1Nc1nc(N)c(Cl)c(Nc2ccccc2S(=O)(=O)C(C)C)n1 [HG-5-88-01] + N=C(N)NC(=N)NCCc1ccccc1 [Phenformin] (partner 250 µM)
relative viability (NCI-H1623; first compound 0.04 µM): 0.651
relative viability (NCI-H1623; first compound 0.1265 µM): 0.618
relative viability (NCI-H1623; first compound 0.4 µM): 0.561
relative viability (NCI-H1623; first compound 4 µM): 0.524
relative viability (A549; first compound 0.04 µM): 0.246
relative viability (A549; first compound 0.1265 µM): 0.24
relative viability (A549; first compound 0.4 µM): 0.327
relative viability (A549; first compound 1.265 µM): 0.347
relative viability (A549; first compound 4 µM): 0.183
relative viability (NCI-H1355; first compound 0.04 µM): 0.487
relative viability (NCI-H1355; first compound 0.1265 µM): 0.493
relative viability (NCI-H1355; first compound 0.4 µM): 0.431
relative viability (NCI-H1355; first compound 1.265 µM): 0.455
relative viability (NCI-H1355; first compound 4 µM): 0.316

CC(C)Oc1cc(Nc2nc(N[C@@H](C)c3ccc(F)cn3)ncc2Cl)n[nH]1 [AZ23] + COc1cccc2cc(-c3nc([C@H]4CC[C@H](C(=O)O)CC4)n4ncnc(N)c34)[nH]c12 [OSI-027] (partner 0.5 µM)
relative viability (NCI-H1623; first compound 0.01 µM): 0.401
relative viability (NCI-H1623; first compound 0.03162 µM): 0.401
relative viability (NCI-H1623; first compound 0.3162 µM): 0.43
relative viability (NCI-H1648; first compound 0.03162 µM): 0.258
relative viability (NCI-H1648; first compound 0.3162 µM): 0.256
relative viability (NCI-H1355; first compound 0.01 µM): 0.401
relative viability (NCI-H1355; first compound 0.03162 µM): 0.421
relative viability (NCI-H1355; first compound 0.3162 µM): 0.361

Clc1ccc(Nc2nnc(Cc3ccncc3)c3ccccc23)cc1 [Vatalanib] + N=C(N)NC(=N)NCCc1ccccc1 [Phenformin] (partner 250 µM)
relative viability (NCI-H1623; first compound 0.04 µM): 0.584
relative viability (NCI-H1623; first compound 0.1265 µM): 0.577
relative viability (NCI-H1623; first compound 0.4 µM): 0.514
relative viability (NCI-H1623; first compound 1.265 µM): 0.581
relative viability (NCI-H1623; first compound 4 µM): 0.524
relative viability (A549; first compound 0.04 µM): 0.206
relative viability (A549; first compound 0.1265 µM): 0.131
relative viability (A549; first compound 0.4 µM): 0.104
relative viability (A549; first compound 1.265 µM): 0.143
relative viability (A549; first compound 4 µM): 0.154
relative viability (NCI-H1355; first compound 0.04 µM): 0.511
relative viability (NCI-H1355; first compound 0.1265 µM): 0.419
relative viability (NCI-H1355; first compound 0.4 µM): 0.444
relative viability (NCI-H1355; first compound 1.265 µM): 0.431
relative viability (NCI-H1355; first compound 4 µM): 0.401

COc1cc(N2CCC(C(N)=O)CC2)ccc1Nc1nc(N)c(Cl)c(Nc2ccccc2S(=O)(=O)C(C)C)n1 [HG-5-88-01] + O=C(c1cc(Cc2n[nH]c(=O)c3ccccc23)ccc1F)N1CCN(C(=O)C2CC2)CC1 [Olaparib] (partner 8 µM)
relative viability (A549; first compound 0.04 µM): 0.357
relative viability (A549; first compound 0.1265 µM): 0.419
relative viability (A549; first compound 0.4 µM): 0.352
relative viability (A549; first compound 1.265 µM): 0.273
relative viability (A549; first compound 4 µM): 0.25
relative viability (NCI-H1703; first compound 0.04 µM): 0.341
relative viability (NCI-H1703; first compound 0.1265 µM): 0.386
relative viability (NCI-H1703; first compound 1.265 µM): 0.305
relative viability (NCI-H1703; first compound 4 µM): 0.309
relative viability (IA-LM; first compound 0.04 µM): 0.79
relative viability (IA-LM; first compound 0.1265 µM): 0.839
relative viability (IA-LM; first compound 0.4 µM): 0.87
relative viability (IA-LM; first compound 1.265 µM): 0.699
relative viability (IA-LM; first compound 4 µM): 0.649
relative viability (NCI-H1299; first compound 0.04 µM): 0.956
relative viability (NCI-H1299; first compound 0.1265 µM): 0.972
relative viability (NCI-H1299; first compound 0.4 µM): 0.986
relative viability (NCI-H1299; first compound 1.265 µM): 0.951
relative viability (NCI-H1299; first compound 4 µM): 0.87
relative viability (Calu-6; first compound 0.04 µM): 0.599
relative viability (Calu-6; first compound 0.1265 µM): 0.579
relative viability (Calu-6; first compound 0.4 µM): 0.579
relative viability (Calu-6; first compound 1.265 µM): 0.537
relative viability (Calu-6; first compound 4 µM): 0.46
relative viability (NCI-H1648; first compound 0.04 µM): 1.13
relative viability (NCI-H1648; first compound 0.1265 µM): 0.63
relative viability (NCI-H1648; first compound 0.4 µM): 0.457
relative viability (NCI-H1648; first compound 1.265 µM): 0.773
relative viability (NCI-H1648; first compound 4 µM): 0.462
relative viability (EBC-1; first compound 0.04 µM): 0.712
relative viability (EBC-1; first compound 0.1265 µM): 0.77
relative viability (EBC-1; first compound 0.4 µM): 0.733
relative viability (EBC-1; first compound 1.265 µM): 0.668
relative viability (EBC-1; first compound 4 µM): 0.489
relative viability (NCI-H1355; first compound 0.04 µM): 0.833
relative viability (NCI-H1355; first compound 0.1265 µM): 0.768
relative viability (NCI-H1355; first compound 0.4 µM): 0.74
relative viability (NCI-H1355; first compound 1.265 µM): 0.706
relative viability (NCI-H1355; first compound 4 µM): 0.584

— the supplement of paper PMC10307832
